Measured values taken from ChEMBL document CHEMBL1151440, “Safety and pharmacokinetics of GSK364735, a human immunodeficiency virus type 1 integrase inhibitor, following single and repeated administration in healthy adult subjects” (Antimicrob Agents Chemother, 2007).

Tests used:
Rattus norvegicus = experiment: Clearance in iv dosed rat assessed as liver blood flow; type: ADME, organism-based; details: in vivo
[1] = Plasma concentration in human at 400 mg administered with fat meal every 12 hrs for 8 days measured on day 1 after 12 hrs of first dose; type: ADME, organism-based
[2] = AUC (0 to 24 hrs) in human at 400 mg administered with fat meal daily for 8 days measured on day 8; type: ADME, organism-based; design: dose 400 mg, time < 24 hr; details: plasma
Homo sapiens = experiment: Toxicity in human assessed as headache at 200 mg administered every 8 hrs for 8 days; type: organism-based; details: in vivo
[3] = Tmax in fasted human at 400 mg administered with fat meal as single dose; type: ADME, organism-based; details: in vivo
[4] = AUC (0 to infinity) in human at 400 mg administered with fat meal daily for 8 days measured on day 1; type: ADME, organism-based; design: dose 400 mg, time infinity; details: plasma
Rhesus monkey = experiment: Clearance in iv dosed monkey assessed as liver blood flow; type: ADME, organism-based, Macaca mulatta; details: in vivo
[5] = Plasma concentration in human at 200 mg administered with fat meal every 12 hrs for 8 days measured on day 1 after 12 hrs of first dose; type: ADME, organism-based

Molecule `Cn1c(=O)c(C(=O)NCCO)c(O)c2ncc(Cc3ccc(F)cc3)cc21` [GSK-364735] has a QH (Rattus norvegicus) of 5.8%, a concentration at 12 h [1] of 340 ng/mL and an AUC at 24 h [2] of 12000 ng·h/mL. It also gave an Activity (Homo sapiens) of 13%, a Tmax [3] of 7 h and an AUC(0-inf) [4] of 15000 ng·h/mL. It also gave a QH (Rhesus monkey) of 4.6% and a concentration at 12 h [5] of 230 ng/mL.
